Test results taken from patent US20050014849A1, “Antifungal phenylethylene” (priority 2001, published 2005).
In brackets after ≈: the same amount, converted by molar mass. Read-outs that look alike come from different tables or passages of the source.

Tests used:
[1] = system: R. nigracans (ASU culture collection); test: Broth macrodilution MIC/MFC, filamentous fungi; type: cell-based, Rhizopus nigracans
Experimental: (§1) Susceptibility testing of filamentous fungi was also conducted. Broth macrodilution susceptibility testing of P. lilacinus, Rhizopus spp. and Aspergillus spp. was performed in accordance with a proposed standardized procedure with slight modification. To induce conidium and sporangiospore formation, fungi were grown on PDA slants at 35° C. for 6 days (P. lilacinus, Rhizopus spp., all Aspergillus species except A. nidulans) or 3 days (A. nidulans). Fungal slants were covered with sterile 0.85% NaCl (P. lilacinus, Rhizopus spp., all Aspergillus species except A. nidulans) or 0.05% Tween 80 (A. nidulans), and suspensions were made by gently probing the colonies with the tip of a sterile Pasteur pipette. The resulting mixture of hyphal fragments and conidia or sporangiospores was withdrawn and transferred to a sterile clear microcentrifuge tube, and heavy particles were allowed to settle for 10 min. […] Susceptibility to TMPN was then determined by broth macrodilution as described above for yeast isolates. […]
(§2) Minimum fungicidal concentrations (MFCs) were determined by subculturing 0.1 ml from each tube with no visible growth in the MIC broth macrodilution series onto the appropriate drug-free plates (see Fungal Strains section above).

[2] = system: Aspergillus fumigatus ATCC 96918; test: Broth macrodilution MIC/MFC, filamentous fungi; type: cell-based; conditions: for MFC / MIC: Aspergillus fumigatus
Experimental: (§3) Susceptibility testing of filamentous fungi was also conducted. Broth macrodilution susceptibility testing of P. lilacinus, Rhizopus spp. and Aspergillus spp. was performed in accordance with a proposed standardized procedure with slight modification. To induce conidium and sporangiospore formation, fungi were grown on PDA slants at 35° C. for 6 days (P. lilacinus, Rhizopus spp., all Aspergillus species except A. nidulans) or 3 days (A. nidulans). Fungal slants were covered with sterile 0.85% NaCl (P. lilacinus, Rhizopus spp., all Aspergillus species except A. nidulans) or 0.05% Tween 80 (A. nidulans), and suspensions were made by gently probing the colonies with the tip of a sterile Pasteur pipette. The resulting mixture of hyphal fragments and conidia or sporangiospores was withdrawn and transferred to a sterile clear microcentrifuge tube, and heavy particles were allowed to settle for 10 min. The upper homogenous suspension was transferred to a sterile microcentrifuge tube, vortexed for 15 s, adjusted spectrophotometrically, and diluted in sterile 0.165 M MOPS-buffered RPMI medium, pH 7.0, to yield final inocula ranging from 0.5-2.5×10^3 cfu/ml. Susceptibility to TMPN was then determined by broth macrodilution as described above for yeast isolates. MICs were read after 48 h The MIC was defined as the lowest concentration of TMPN that inhibited all visible growth of the test organism (optically clear).
as §2
(§4) Possible host effects were also evaluated. Broth macrodilution assays were performed with RPMI medium prepared at pH 5, pH 6, and pH 7, and in RPMI medium with and without 50% normal human serum (Lampire Biological Labs). The pH experiments were performed twice on separate days.

[3] = system: A. flavus (ASU culture collection); test: Broth macrodilution MIC/MFC, filamentous fungi; type: cell-based, Aspergillus flavus
Experimental: as §1, §2

C. albicans ATCC 14053 = test: Broth macrodilution MIC/MFC; type: cell-based, Candida albicans
Experimental: (§5) TMPN was screened against yeasts by the broth macrodilution assay according to the NCCLS [7]. Yeasts were suspended and diluted as recommended to yield final inocula ranging from 0.5-2.5×10^3 cfu/ml. Tests were performed in sterile 12 by 75 mm plastic tubes containing two-fold dilutions of TMPN in 0.165 M morpholinepropanesulfonic acid buffered RPMI 1640 medium (pH 7.0). One tube was again left drug free (but contained an equivalent volume of DMSO) for a turbidity control. Tubes were incubated without agitation at the appropriate temperature (see Fungal Strains section above). MICs were determined after 72 h for Cryptococcus and after 48 h for other yeast genera. The MIC was defined as the lowest concentration of TMPN that inhibited all visible growth of the test organism (optically clear).
as §2

C. albicans ATCC 10231 = test: Broth macrodilution MIC/MFC; type: cell-based, Candida albicans
Experimental: as §5, §2

[4] = system: Flucytosine-resistant C. albicans ATCC 32354; test: Broth macrodilution MIC/MFC; type: cell-based, Candida albicans
Experimental: as §5, §2

C. albicans ATCC 60193 = test: Broth macrodilution MIC/MFC; type: cell-based, Candida albicans
Experimental: as §5, §2

[5] = system: Ketoconazole-resistant C. albicans ATCC 64124; test: Broth macrodilution MIC/MFC; type: cell-based, Candida albicans
Experimental: as §5, §2

C. neoformans ATCC 32045 = test: Broth macrodilution MIC/MFC; type: cell-based, Cryptococcus neoformans
Experimental: as §5, §2

C. neoformans ATCC 14116 = test: Broth macrodilution MIC/MFC; type: cell-based, Cryptococcus neoformans
Experimental: as §5, §2

C. neoformans (24) = test: Broth macrodilution MIC/MFC; type: cell-based, Cryptococcus neoformans
Experimental: as §5, §2

C. neoformans ATCC 66031 = test: Broth macrodilution MIC/MFC; type: cell-based, Cryptococcus neoformans
Experimental: as §5, §2

C. albicans ATCC 90028 = test: Broth macrodilution MIC/MFC; type: cell-based, Candida albicans; conditions: for MFC: Candida albicans ATCC 90028; for MIC: Candida albicans
Experimental: as §5, §2, §4

[6] = system: Rhizopus oligosporus ATCC 22959; test: Broth macrodilution MIC/MFC, filamentous fungi; type: cell-based
Experimental: as §3, §2

[7] = system: Paecilomyces lilacinus (1); test: Broth macrodilution MIC/MFC, filamentous fungi; type: cell-based
Experimental: as §3, §2

[8] = Aspergillus fumigatus ATCC 96918
[9] = ATCC96918, Aspergillus fumigatus ATCC 96918, 50% human serum
[10] = ATCC96918, Aspergillus fumigatus ATCC 96918, no serum
[11] = ATCC96918, pH 5, Aspergillus fumigatus ATCC 96918, pH 5
[12] = ATCC96918, pH 5, Aspergillus fumigatus ATCC 96918, pH 5, repeat experiment
[13] = ATCC96918, pH 6, Aspergillus fumigatus ATCC 96918, pH 6
[14] = ATCC96918, pH 6, Aspergillus fumigatus ATCC 96918, pH 6, repeat experiment
[15] = ATCC96918, pH 7, Aspergillus fumigatus ATCC 96918, pH 7
[16] = ATCC96918, pH 7, Aspergillus fumigatus ATCC 96918, pH 7, repeat experiment

COc1cc(C=C[N+](=O)[O-])cc(OC)c1OC [TMPN, 1-(3′,4′,5′-trimethoxyphenyl)-2-nitro-ethylene]
MFC Range [1]: >64 µg/mL
MIC Range [1]: 32 µg/mL (≈ 134 µM)
MFC Range [2, 8]: >64 µg/mL
MIC Range [2, 8]: 8 µg/mL (≈ 33.4 µM)
MFC [2, 9]: > 64 µg/mL
MIC [2, 9]: 16 µg/mL (≈ 66.9 µM)
MFC [2, 10]: 16 µg/mL (≈ 66.9 µM)
MIC [2, 10]: 8 µg/mL (≈ 33.4 µM)
MFC [2, 11]: 32 µg/mL (≈ 134 µM)
MIC [2, 11]: 4 µg/mL (≈ 16.7 µM)
MFC [2, 12]: > 64 µg/mL
MIC [2, 12]: 8 µg/mL (≈ 33.4 µM)
MFC [2, 13]: 32 µg/mL (≈ 134 µM)
MIC [2, 13]: 4 µg/mL (≈ 16.7 µM)
MFC [2, 14]: > 64 µg/mL
MIC [2, 14]: 8 µg/mL (≈ 33.4 µM)
MFC [2, 15]: 32 µg/mL (≈ 134 µM)
MIC [2, 15]: 4 µg/mL (≈ 16.7 µM)
MFC [2, 16]: > 64 µg/mL
MIC [2, 16]: 8 µg/mL (≈ 33.4 µM)
MFC Range [3]: >64 µg/mL
MIC Range [3]: 16 µg/mL (≈ 66.9 µM)
MFC Range (C. albicans ATCC 14053): 16 µg/mL (≈ 66.9 µM)
MIC Range (C. albicans ATCC 14053): 16 µg/mL (≈ 66.9 µM)
MFC Range (C. albicans ATCC 10231): 8 µg/mL (≈ 33.4 µM)
MIC Range (C. albicans ATCC 10231): 8 µg/mL (≈ 33.4 µM)
MFC Range [4]: 16 µg/mL (≈ 66.9 µM)
MIC Range [4]: 16 µg/mL (≈ 66.9 µM)
MFC Range (C. albicans ATCC 60193): 16 µg/mL (≈ 66.9 µM)
MIC Range (C. albicans ATCC 60193): 16 µg/mL (≈ 66.9 µM)
MFC Range [5]: 32 µg/mL (≈ 134 µM)
MIC Range [5]: 16 µg/mL (≈ 66.9 µM)
MFC Range (C. neoformans ATCC 32045): 4 µg/mL (≈ 16.7 µM)
MIC Range (C. neoformans ATCC 32045): 4 µg/mL (≈ 16.7 µM)
MFC Range (C. neoformans ATCC 14116): 16 µg/mL (≈ 66.9 µM)
MIC Range (C. neoformans ATCC 14116): 8 µg/mL (≈ 33.4 µM)
MFC 50% (MFC at which 50% of the strains are killed) (C. neoformans (24); C. neoformans (24)): 8 µg/mL
MFC 90% (MFC at which 90% of the strains are killed) (C. neoformans (24); C. neoformans (24)): 16 µg/mL
MFC Range (C. neoformans (24); C. neoformans (24)): 4 to 32 µg/mL
MIC Range (C. neoformans (24); C. neoformans (24)): 2 to 16 µg/mL
share of isolates with MFC/MIC ratio <2 (C. neoformans (24); C. neoformans clinical isolates): 96%
share of isolates with MFC/MIC ratio ≦2 (C. neoformans (24); Cryptococcus neoformans clinical isolates): 96%
MIC50 (C. neoformans (24); Cryptococcus neoformans, C. neoformans (24), read-out: MIC 50% (MIC at which 50% of the strains are inhibited)): 4 µg/mL (≈ 16.7 µM)
MIC90 (C. neoformans (24); Cryptococcus neoformans, C. neoformans (24), read-out: MIC 90% (MIC at which 90% of the strains are inhibited)): 8 µg/mL (≈ 33.4 µM)
MFC Range (C. neoformans ATCC 66031): 4 µg/mL (≈ 16.7 µM)
MIC Range (C. neoformans ATCC 66031): 2 µg/mL (≈ 8.36 µM)
MFC (C. albicans ATCC 90028; ATCC90028, no serum, read-out: MFC): 32 µg/mL (≈ 134 µM)
MFC (C. albicans ATCC 90028; ATCC90028, pH 5, read-out: MFC): 32 µg/mL (≈ 134 µM)
MFC (C. albicans ATCC 90028; ATCC90028, pH 6, read-out: MFC): 32 µg/mL (≈ 134 µM)
MFC (C. albicans ATCC 90028; ATCC90028, pH 7, read-out: MFC): 32 µg/mL (≈ 134 µM)
MFC Range (C. albicans ATCC 90028; C. albicans ATCC 90028): 32 µg/mL (≈ 134 µM)
MIC Range (C. albicans ATCC 90028; C. albicans ATCC 90028): 32 µg/mL (≈ 134 µM)
MFC (C. albicans ATCC 90028; 20 μg/ml bovine serum albumin): 32 (32) μg/ml
MFC (C. albicans ATCC 90028; 40 μg/ml bovine serum albumin): 32 µg/mL (≈ 134 µM)
MFC (C. albicans ATCC 90028; no bovine serum albumin): 32 (32) μg/ml
MFC (C. albicans ATCC 90028; pH 5, repeat experiment): 32 (32), 32 (32) μg/ml
MFC (C. albicans ATCC 90028; pH 6, repeat experiment): 32 (32), 32 (32) μg/ml
MFC (C. albicans ATCC 90028; pH 7, repeat experiment): 32 (32), 32 (32) μg/ml
MIC (C. albicans ATCC 90028; ATCC90028, Candida albicans ATCC 90028, 20 μg/ml bovine serum albumin): 32 µg/mL (≈ 134 µM)
MIC (C. albicans ATCC 90028; ATCC90028, Candida albicans ATCC 90028, 40 μg/ml bovine serum albumin): 16 µg/mL (≈ 66.9 µM)
MIC (C. albicans ATCC 90028; ATCC90028, Candida albicans ATCC 90028, 50% human serum): > 64 µg/mL
MIC (C. albicans ATCC 90028; ATCC90028, Candida albicans ATCC 90028, no bovine serum albumin): 32 µg/mL (≈ 134 µM)
MIC (C. albicans ATCC 90028; ATCC90028, Candida albicans ATCC 90028, no serum): 32 µg/mL (≈ 134 µM)
MIC (C. albicans ATCC 90028; ATCC90028, pH 5, Candida albicans ATCC 90028, pH 5): 32 µg/mL (≈ 134 µM)
MIC (C. albicans ATCC 90028; ATCC90028, pH 5, Candida albicans ATCC 90028, pH 5, repeat experiment): 32 µg/mL (≈ 134 µM)
MIC (C. albicans ATCC 90028; ATCC90028, pH 6, Candida albicans ATCC 90028, pH 6): 32 µg/mL (≈ 134 µM)
MIC (C. albicans ATCC 90028; ATCC90028, pH 6, Candida albicans ATCC 90028, pH 6, repeat experiment): 32 µg/mL (≈ 134 µM)
MIC (C. albicans ATCC 90028; ATCC90028, pH 7, Candida albicans ATCC 90028, pH 7): 32 µg/mL (≈ 134 µM)
MIC (C. albicans ATCC 90028; ATCC90028, pH 7, Candida albicans ATCC 90028, pH 7, repeat experiment): 32 µg/mL (≈ 134 µM)
MFC Range [6]: >64 µg/mL
MIC Range [6]: 8 µg/mL (≈ 33.4 µM)
MFC Range [7]: 64 µg/mL (≈ 268 µM)
MIC Range [7]: 32 µg/mL (≈ 134 µM)
